Results from ChEMBL document CHEMBL1201862, “PubChem BioAssay data set” (2004).
Calls of active or inactive are those of the source.

Legend:
[1] = target: 5-hydroxytryptamine receptor 1E (Homo sapiens, UniProt P28566); assay: Counterscreen assay for S1P3 antagonists: Dose response cell-based high throughput screening assay to identify antagonists of the 5-Hydroxytryptamine Receptor Subtype 1E (5HT1E). [Related pubchem assays: 1429, 485 ]; type: functional
[2] = target: Sphingosine 1-phosphate receptor 3 (Homo sapiens, UniProt Q99500); assay: Dose response cell-based high throughput screening assay for antagonists of the Sphingosine 1-Phosphate Receptor 3 (S1P3). [Related pubchem assays: 1429, 485 ]; type: functional
[3] = target: Epstein-Barr nuclear antigen 1 (Epstein-Barr virus (strain B95-8) (HHV-4) (Human herpesvirus 4), UniProt P03211); assay: inhibition of EBV nuclear antigen 1 DNA binding – biochemical, fluorescence polarization, 1536-well, dose response (AID 2381); parameters: species or system human gammaherpesvirus 4;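 further: fluorescence polarization of a Cy5 DNA probe bound by EBNA-1 protein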
[4] = target: Lytic switch protein BZLF1 (Epstein-Barr virus (strain B95-8) (HHV-4) (Human herpesvirus 4), UniProt P03206); assay: inhibition of BZLF1 ZTA DNA binding – biochemical, fluorescence polarization, Epstein-Barr virus, 1536-well, counter-screen for EBNA-1 inhibitor project, dose response (AID 2377); parameters: species or system human gammaherpesvirus 4;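 further: fluorescence polarization of Cy5-labelled ZRE DNA probe bound by purified Zta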
[5] = target: ATP-sensitive inward rectifier potassium channel 1 (Homo sapiens, UniProt P48048); assay: Kir1.1 channel inhibitor analog potency – cell-based, thallium flux, analog library, SAR follow-up (AID 435017); type: functional
[6] = Luminescent dose response cell-based high throughput screening assay for inhibitors of the Janus kinase 2 mutant JAK2V617F. [Related pubchem assays: 1446 (Primary screen.), 1521 (Confirmation assay.), 1486 (Counter screen.)]; type: functional
Vero [7] = assay: mammalian cell viability reduction – secondary assay, cytotoxicity control for West Nile virus antiviral project, dose response (AID 1650); type: functional; settings: Chlorocebus sabaeus
[8] = Luminescence Cell-Based Dose Retest to Confirm Inhibitors of Cancer Stem Cells. [Related pubchem assays (depositor defined):AID2717, AID2721]; type: functional; settings: Homo sapiens
[9] = target: T1, Heat shock factor protein 1 (Mus musculus, UniProt P38532); assay: enhancement of HSF1-driven luciferase signal – cell-based, NIH3T3, luminescence, dose retest, confirmation (AID 435004); type: functional;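 further: stress induced by proteasome inhibitor MG132 added 30 min after compound; luciferase reporter driven by HSF1 response element in NIH3T3 cells; actives raise luminescence as potentiators of the MG132 stress response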
T1 sequence (P38532 whole entry): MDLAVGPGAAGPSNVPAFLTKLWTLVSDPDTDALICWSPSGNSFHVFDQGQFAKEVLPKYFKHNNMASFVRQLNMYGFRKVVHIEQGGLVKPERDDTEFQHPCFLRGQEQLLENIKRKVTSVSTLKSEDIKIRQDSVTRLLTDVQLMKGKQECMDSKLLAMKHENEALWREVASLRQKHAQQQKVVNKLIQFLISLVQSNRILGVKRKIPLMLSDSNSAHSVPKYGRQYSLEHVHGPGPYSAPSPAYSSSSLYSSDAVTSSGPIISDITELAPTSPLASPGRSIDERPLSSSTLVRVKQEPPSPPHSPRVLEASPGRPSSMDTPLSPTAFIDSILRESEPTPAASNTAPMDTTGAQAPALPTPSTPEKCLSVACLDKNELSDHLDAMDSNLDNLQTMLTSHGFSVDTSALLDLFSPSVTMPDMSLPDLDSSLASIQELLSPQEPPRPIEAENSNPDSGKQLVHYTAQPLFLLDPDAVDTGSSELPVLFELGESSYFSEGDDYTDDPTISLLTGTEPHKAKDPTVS

[10] = target: T2, Replicative DNA helicase DnaB (Mycobacterium tuberculosis, UniProt P9WMR3); assay: DnaB intein splicing inhibitors, dose response, biochemical, cell-free fluorescence (AID 449749); type: functional
T2 sequence (P9WMR3 whole entry): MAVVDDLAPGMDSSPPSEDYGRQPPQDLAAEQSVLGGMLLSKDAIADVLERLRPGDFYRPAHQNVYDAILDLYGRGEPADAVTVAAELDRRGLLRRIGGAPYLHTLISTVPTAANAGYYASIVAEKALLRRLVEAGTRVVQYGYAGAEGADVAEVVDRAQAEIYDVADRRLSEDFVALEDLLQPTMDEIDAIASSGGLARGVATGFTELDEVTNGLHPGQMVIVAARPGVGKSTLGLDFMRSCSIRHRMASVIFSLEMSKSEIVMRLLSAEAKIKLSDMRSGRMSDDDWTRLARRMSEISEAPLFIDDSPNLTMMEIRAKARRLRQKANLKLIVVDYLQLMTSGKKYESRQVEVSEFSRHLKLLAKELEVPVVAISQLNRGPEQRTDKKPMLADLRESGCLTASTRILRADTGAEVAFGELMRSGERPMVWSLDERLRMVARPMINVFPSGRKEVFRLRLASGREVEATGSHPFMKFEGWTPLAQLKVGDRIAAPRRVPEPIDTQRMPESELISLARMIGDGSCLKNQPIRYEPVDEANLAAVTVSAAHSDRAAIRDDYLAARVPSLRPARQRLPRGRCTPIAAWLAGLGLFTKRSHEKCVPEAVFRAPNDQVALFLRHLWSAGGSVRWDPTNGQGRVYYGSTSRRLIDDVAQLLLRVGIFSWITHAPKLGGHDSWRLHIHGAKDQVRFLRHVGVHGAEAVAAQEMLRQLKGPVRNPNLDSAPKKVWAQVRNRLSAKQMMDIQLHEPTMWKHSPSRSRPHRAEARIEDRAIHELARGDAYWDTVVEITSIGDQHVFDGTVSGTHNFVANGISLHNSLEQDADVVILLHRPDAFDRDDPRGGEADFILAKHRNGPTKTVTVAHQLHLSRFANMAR

Vero [11] = assay: viability of Vero cells under compound – cytotoxicity control for flavivirus capping enzyme inhibitors (AID 588742); type: functional; settings: Chlorocebus sabaeus
Vero [12] = assay: cells; type: functional, cell-based; settings: Chlorocebus sabaeus
Protein RecA = target: T3, Protein RecA (Mycobacterium tuberculosis, UniProt P9WHJ3); assay: Fluorescence Cell-Free Homogeneous Dose Retest to Identify Inhibitors of RecA-Intein Splicing Activity. [Related pubchem assays (depositor defined):AID2097, AID2223, AID489010, AID492950]; type: functional
T3 sequence (P9WHJ3 whole entry): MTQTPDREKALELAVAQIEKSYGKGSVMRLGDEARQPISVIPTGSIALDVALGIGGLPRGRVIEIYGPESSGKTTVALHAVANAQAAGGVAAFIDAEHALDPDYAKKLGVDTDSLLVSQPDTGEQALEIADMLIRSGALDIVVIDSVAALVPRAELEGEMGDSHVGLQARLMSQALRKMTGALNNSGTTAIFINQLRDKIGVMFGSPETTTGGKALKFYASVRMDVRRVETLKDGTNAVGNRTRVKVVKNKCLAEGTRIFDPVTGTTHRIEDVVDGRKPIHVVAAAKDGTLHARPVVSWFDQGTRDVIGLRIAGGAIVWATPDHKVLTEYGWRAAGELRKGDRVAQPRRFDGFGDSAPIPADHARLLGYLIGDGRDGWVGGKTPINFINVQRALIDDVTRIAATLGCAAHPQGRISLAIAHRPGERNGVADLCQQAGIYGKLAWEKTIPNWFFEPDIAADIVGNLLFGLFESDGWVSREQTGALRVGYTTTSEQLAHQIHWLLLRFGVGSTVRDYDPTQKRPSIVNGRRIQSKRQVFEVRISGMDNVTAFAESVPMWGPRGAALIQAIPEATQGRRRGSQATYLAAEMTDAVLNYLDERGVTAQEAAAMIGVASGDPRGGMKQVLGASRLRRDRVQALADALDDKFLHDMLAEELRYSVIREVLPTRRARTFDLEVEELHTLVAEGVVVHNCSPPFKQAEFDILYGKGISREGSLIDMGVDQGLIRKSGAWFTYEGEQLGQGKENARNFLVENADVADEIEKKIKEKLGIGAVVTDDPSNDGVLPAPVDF

Vero [13] = assay: cells; type: functional; settings: Chlorocebus sabaeus
Genome polyprotein = Genome polyprotein (dengue virus type 2, UniProt P29990); assay: flavivirus cap methylation enzyme inhibition – biochemical, confirmation dose response, primary screen (AID 588689); type: functional
[14] = M. tuberculosis H37Rv growth inhibitors, H37Rv strain (AID 1626); type: functional
[15] = Luminescence Cell-Based Dose Response to Identify Activators of 5'UTR Stem-Loop Driven Prion Protein mRNA Translation in H4-C Neuroglioblastoma Cells. [Related pubchem assays: 1829 (Project Summary), 1814 (Primary HTS)]; type: functional
[16] = Luminescence Cell-Based Dose Confirmation HTS to Identify Activators of 5'UTR Stem-Loop Driven Alpha-Synuclein mRNA Translation in H4 Neuroglioblastoma Cells. [Related pubchem assays: 1829 (Project Summary), 1814 (Primary HTS)]; type: functional
[17] = Luminescence Cell-Based Dose Response HTS to Identify Activators of Luciferase Translation or Activity in H4 […] Cells. [Related pubchem assays: 1829 (Project Summary), 1814 (Primary HTS)]; type: functional
H4 = assay: Luminescence Cell-Based Dose Response HTS to Identify Activators of 5'UTR Stem-Loop Driven Prion Protein mRNA Translation in H4 Neuroglioblastoma Cells. [Related pubchem assays: 1829 (Project Summary), 1814 (Primary HTS)]; type: functional; settings: Homo sapiens
[18] = Luminescence Cell-Based Dose Response to Identify Activators of Luciferase Translation or Activity in H4-C Neuroglioblastoma Cells. [Related pubchem assays: 1829 (Project Summary), 1814 (Primary HTS)]; type: functional
[19] = Luminescence Cell-Based Dose Confirmation to Identify Activators of 5'UTR Stem-Loop Driven Alpha-Synuclein mRNA Translation in H4 Neuroglioblastoma Cells. [Related pubchem assays: 1829 (Project Summary), 1814 (Primary HTS)]; type: functional
[20] = target: Glyceraldehyde-3-phosphate dehydrogenase (Homo sapiens, UniProt P04406)
Bcl-2-related protein A1 [21] = target: T4, Bcl-2-related protein A1 (Mus musculus, UniProt Q07440); assay: small-molecule antagonists of Bfl-1/BH3 interaction – biochemical, TR-FRET, mouse Bfl-1, confirmation (AID 621);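 further: TR-FRET binding of GST-Bfl-1 to FITC-labelled Bid peptide via terbium antibody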
T4 sequence (Q07440 whole entry): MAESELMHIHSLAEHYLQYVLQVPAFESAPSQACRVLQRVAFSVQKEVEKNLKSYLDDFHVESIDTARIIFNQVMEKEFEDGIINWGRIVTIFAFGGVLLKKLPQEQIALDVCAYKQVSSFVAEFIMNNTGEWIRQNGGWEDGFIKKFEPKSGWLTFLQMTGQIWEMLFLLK

Bcl-2-related protein A1 [22] = target: T4, Bcl-2-related protein A1; assay: Bfl-1 binding inhibitors, SAR follow-up, biochemical, fluorescence polarization (AID 1070)

Sequence of Sphingosine 1-phosphate receptor 3 (Q99500 whole entry): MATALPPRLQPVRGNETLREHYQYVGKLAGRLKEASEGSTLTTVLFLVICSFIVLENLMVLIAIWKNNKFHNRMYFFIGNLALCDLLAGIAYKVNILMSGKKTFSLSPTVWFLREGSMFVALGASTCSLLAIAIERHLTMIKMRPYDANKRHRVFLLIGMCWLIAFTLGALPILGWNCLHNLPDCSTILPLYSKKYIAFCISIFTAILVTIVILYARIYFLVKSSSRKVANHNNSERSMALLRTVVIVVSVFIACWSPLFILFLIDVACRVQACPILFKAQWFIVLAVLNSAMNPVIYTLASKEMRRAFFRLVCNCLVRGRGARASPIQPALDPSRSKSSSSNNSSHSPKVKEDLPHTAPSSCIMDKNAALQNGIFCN
Sequence of 5-hydroxytryptamine receptor 1E (P28566 whole entry): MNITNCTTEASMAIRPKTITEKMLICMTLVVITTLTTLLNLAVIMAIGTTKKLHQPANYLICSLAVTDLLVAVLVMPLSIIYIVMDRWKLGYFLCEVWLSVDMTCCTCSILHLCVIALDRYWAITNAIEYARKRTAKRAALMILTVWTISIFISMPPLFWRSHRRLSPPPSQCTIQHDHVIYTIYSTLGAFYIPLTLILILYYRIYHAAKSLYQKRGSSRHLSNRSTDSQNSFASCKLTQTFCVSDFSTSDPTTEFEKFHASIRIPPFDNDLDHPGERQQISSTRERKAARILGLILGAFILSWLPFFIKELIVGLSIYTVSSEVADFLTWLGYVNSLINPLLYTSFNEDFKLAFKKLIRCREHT
Sequence of Epstein-Barr nuclear antigen 1 (P03211 whole entry): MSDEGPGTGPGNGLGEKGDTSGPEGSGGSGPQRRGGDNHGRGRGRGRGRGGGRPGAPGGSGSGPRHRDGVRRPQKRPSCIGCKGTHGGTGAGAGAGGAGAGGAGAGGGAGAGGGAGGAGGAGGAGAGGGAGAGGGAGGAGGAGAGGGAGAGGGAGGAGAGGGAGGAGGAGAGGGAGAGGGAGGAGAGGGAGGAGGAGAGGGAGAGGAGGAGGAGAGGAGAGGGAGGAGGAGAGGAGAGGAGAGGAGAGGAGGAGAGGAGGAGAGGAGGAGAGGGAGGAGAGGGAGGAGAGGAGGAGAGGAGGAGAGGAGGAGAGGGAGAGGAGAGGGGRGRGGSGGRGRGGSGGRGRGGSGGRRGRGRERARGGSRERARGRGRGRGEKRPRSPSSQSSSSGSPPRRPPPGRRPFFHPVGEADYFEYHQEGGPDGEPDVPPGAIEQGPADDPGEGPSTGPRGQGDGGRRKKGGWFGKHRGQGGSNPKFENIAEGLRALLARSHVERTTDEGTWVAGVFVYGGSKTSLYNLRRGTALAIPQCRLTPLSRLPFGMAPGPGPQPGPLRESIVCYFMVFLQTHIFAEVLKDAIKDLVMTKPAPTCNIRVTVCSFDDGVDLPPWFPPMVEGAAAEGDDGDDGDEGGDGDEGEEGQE
Sequence of Lytic switch protein BZLF1 (P03206 whole entry): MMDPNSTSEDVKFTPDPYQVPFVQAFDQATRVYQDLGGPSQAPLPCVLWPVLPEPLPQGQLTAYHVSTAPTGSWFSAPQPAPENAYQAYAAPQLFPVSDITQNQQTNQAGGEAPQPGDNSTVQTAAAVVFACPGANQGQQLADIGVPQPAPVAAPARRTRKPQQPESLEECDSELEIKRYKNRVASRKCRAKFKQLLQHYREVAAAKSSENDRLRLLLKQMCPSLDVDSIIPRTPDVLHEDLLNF
Sequence of Genome polyprotein (P29990 2492-3391 limits assumed): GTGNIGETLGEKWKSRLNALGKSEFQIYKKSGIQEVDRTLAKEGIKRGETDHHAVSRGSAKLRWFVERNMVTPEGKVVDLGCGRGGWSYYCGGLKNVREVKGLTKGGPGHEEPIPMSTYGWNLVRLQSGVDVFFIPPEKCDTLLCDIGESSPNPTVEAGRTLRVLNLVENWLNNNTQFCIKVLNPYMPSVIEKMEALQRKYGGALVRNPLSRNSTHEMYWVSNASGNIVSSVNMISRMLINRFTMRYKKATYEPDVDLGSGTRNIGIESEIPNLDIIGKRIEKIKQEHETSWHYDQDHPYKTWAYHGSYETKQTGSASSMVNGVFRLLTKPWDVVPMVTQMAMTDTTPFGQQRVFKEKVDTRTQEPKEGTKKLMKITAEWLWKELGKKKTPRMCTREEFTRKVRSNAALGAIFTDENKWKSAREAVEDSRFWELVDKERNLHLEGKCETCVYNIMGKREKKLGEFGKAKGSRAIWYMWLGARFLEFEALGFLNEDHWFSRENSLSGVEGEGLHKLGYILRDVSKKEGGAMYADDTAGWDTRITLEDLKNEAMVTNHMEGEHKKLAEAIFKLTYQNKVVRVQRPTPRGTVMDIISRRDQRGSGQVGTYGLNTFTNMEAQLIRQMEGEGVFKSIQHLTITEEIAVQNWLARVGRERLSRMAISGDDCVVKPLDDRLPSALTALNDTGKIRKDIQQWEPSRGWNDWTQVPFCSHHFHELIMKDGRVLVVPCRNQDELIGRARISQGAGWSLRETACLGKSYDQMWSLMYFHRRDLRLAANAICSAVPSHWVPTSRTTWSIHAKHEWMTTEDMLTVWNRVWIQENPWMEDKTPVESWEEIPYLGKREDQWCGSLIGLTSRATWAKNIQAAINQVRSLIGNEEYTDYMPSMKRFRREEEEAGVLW
Sequence of ATP-sensitive inward rectifier potassium channel 1 (P48048 whole entry): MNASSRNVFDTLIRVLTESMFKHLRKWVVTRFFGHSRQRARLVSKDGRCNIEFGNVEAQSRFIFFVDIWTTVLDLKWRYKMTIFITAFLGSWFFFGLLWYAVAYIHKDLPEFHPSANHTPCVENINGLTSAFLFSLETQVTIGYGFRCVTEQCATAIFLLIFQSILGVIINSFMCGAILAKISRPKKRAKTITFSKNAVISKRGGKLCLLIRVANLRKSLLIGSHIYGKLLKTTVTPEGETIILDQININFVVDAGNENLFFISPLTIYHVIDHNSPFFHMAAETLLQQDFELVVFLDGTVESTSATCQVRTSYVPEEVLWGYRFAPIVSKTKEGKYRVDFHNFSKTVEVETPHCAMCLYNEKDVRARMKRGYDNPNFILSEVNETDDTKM
Sequence of Glyceraldehyde-3-phosphate dehydrogenase (P04406 whole entry): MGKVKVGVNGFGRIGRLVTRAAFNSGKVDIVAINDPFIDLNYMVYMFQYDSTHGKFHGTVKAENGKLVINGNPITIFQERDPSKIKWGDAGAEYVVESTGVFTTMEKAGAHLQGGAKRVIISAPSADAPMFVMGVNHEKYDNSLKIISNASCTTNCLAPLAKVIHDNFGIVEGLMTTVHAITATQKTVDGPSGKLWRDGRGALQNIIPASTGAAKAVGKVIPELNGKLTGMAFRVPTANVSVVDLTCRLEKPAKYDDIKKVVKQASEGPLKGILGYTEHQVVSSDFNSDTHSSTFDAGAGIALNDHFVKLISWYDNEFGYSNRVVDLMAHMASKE

CC1CCCCN1C(=O)Cn1cc(C(=O)c2ccco2)c2ccccc21 (stereo not given)
IC50 [1]: > 50 µM (not active) | IC50 [2]: > 50 µM (not active)

O=C(Nc1ccc(Oc2ccc3c(c2)C(=O)N(c2ccc(O)cc2)C3=O)cc1)c1cccs1
IC50 [3]: 15.1 µM (not active) | IC50 [4]: > 111 µM (not active)

COc1ccc([N+](=O)[O-])cc1CN1CCOCCOCCN(Cc2ccc([N+](=O)[O-])cc2OC)CCOCC1
IC50 [5]: 1.5 µM (active)

Cc1ccc(NC(=O)C(=Cc2ccc(C(=O)O)cc2)C(=O)Nc2ccc(C)cc2C)c(C)c1
IC50 [6]: 1.95 µM (active) | CC50 (Vero [7]): 7.51 µM (active) | AC50 [8]: 1.9 µM (active) | EC50 [9]: 6.71 µM (active) | AC50 [10]: 2.51 µM (active) | CC50 (Vero [11]): 27.3 µM (active) | IC50 (Vero [12]): 19.6 µM (active) | EC50 (Protein RecA): 3.21 µM (active) | CC50 (Vero [13]): 9.83 µM (active) | IC50 (Genome polyprotein): > 100 µM (active)

CCc1ccc(Nc2c([N+](=O)[O-])c(=O)oc3ccccc23)cc1
IC50 [14]: > 100 µM (active)

NNc1nc2c(F)cccc2s1
EC50 [15]: > 12 µM (not active) | EC50 [16]: < 0.1 µM (active) | EC50 [17]: 5.67 µM (active) | EC50 (H4): > 120 µM (not active) | EC50 [18]: > 12 µM (not active) | EC50 [19]: > 12 µM (not active)

O=C1C(Cl)=C(Cl)C(=O)N1c1cccc(Cl)c1Cl
IC50 [20]: > 100 µM (not active) | IC50 (Bcl-2-related protein A1 [21]): 0.5 µM (active) | IC50 (Bcl-2-related protein A1 [22]): 0.979 µM (active)
